The record followed here is US20250214969A1, “PROTEIN DEGRADERS AND USES THEREOF” (Kymera Therapeutics, Inc., priority 2022, published 2025).

Experiment [1] addresses T1, truncated His-MBP-Tev-KLHDC2 (residues 1-363) (Homo sapiens, UniProt Q9Y2U9).
T1 construct: truncated His -MBP-Tev-KLHDC2 (residues 1-363) purified from E. coli; made in house; host or cells: E. coli
T1 sequence (Q9Y2U9 1-363): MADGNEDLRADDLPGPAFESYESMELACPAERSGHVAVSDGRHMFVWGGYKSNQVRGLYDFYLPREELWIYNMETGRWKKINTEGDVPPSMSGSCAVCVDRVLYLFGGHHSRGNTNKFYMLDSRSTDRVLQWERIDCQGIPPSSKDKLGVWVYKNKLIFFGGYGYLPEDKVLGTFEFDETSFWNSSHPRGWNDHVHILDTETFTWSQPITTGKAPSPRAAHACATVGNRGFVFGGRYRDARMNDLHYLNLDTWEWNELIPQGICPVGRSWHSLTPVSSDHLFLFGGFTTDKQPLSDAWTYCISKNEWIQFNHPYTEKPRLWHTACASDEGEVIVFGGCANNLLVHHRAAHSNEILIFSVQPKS
The experiment is described as follows: KLHDC2 HTRF binding assay. Particulars: 1 nM KLHDC2 (residues 1-363), fluorescein-labeled diglycine peptide probe. For orientation: In TR-FRET formats the signal depends on donor and acceptor labels being close together.

The target in experiment [2] is T1, truncated His-MBP-Tev-KLHDC2 (residues 1-363). In words: KLHDC2 FP competition binding assay. Particulars: 15 nM KLHDC2 (residues 1-363), 10 nM fluorescein-labeled diglycine peptide probe, read-out: KLHDC2 binding Human FP: average external IC50.

As for `O=C(O)Cn1cc(N2CC[C@]3(CCN(c4cccnc4)C3)C2=O)ccc1=O` [I-1], the IC50 in experiment [1] and in experiment [2] was above 5000 nM each time.

For the compound `O=C(O)Cn1cc(N2CC[C@@]3(CCN(c4cccnc4)C3)C2=O)ccc1=O` [I-2], the IC50 – broadly, the point on the concentration scale where inhibition reaches its midpoint – in experiment [1] was 500 to 5000 nM; in experiment [2], above 5000 nM.

Take `O=C(O)Cn1cc(NC(=O)[C@H]2CCCN(c3cncc([N+](=O)[O-])c3)C2)ccc1=O` [I-4]: the IC50 in experiment [1] and in experiment [2] was below 50 nM in each case.

`COc1cccc2c(N3CCC[C@H](C(=O)Nc4ccc(Cl)c(CC(=O)O)c4)C3)cncc12` [I-5]: the concentration for half-maximal inhibition (IC50) in experiment [1] and in experiment [2] was 50 to 500 nM throughout.

Consider `COc1cccc2c(N3CCC[C@H](C(=O)Nc4ccc(F)c(CC(=O)O)c4)C3)cncc12` [I-6], for which the concentration for half-maximal inhibition (IC50) in experiment [1] was below 50 nM; in experiment [2] it was 50 to 500 nM.

On to `O=C(O)Cc1cc(NC(=O)[C@H]2CCCN(c3cncc4ccccc34)C2)ccc1Cl` [I-7], for which the values for the IC50 in experiment [1] and in experiment [2] were below 50 nM and 50 to 500 nM, respectively.

Turning to `COc1cccc2c(N3CCC[C@H](C(=O)Nc4ccc(=O)n(CC(=O)O)c4)C3)cncc12` [I-9], the concentration for half-maximal inhibition (IC50) in experiment [1] and in experiment [2] was below 50 nM each time.

Regarding `O=C(O)Cn1cc(NC(=O)c2cccc(-c3cccnc3)c2C(F)(F)F)ccc1=O` [I-10], the IC50 was 500 to 5000 nM in experiment [1] and above 5000 nM in experiment [2].

Turning to `O=C(O)Cn1cc(NC(=O)[C@@H]2Cc3ccccc3N(c3cccnc3)C2)ccc1=O` [I-11], the IC50 in experiment [1] and in experiment [2] was 500 to 5000 nM in each case.

Consider `O=C(O)Cn1cc(NC(=O)[C@H]2Cc3ccccc3N(c3cccnc3)C2)ccc1=O` [I-12], for which the IC50 in experiment [1] and in experiment [2] was above 5000 nM each time.

`COc1cncc(-c2cccc(C(=O)Nc3ccc4c(c3)CC(=O)O4)c2)c1` [I-13]: the half-maximal inhibitory concentration (IC50) in experiment [1] and in experiment [2] was above 5000 nM in each case.

Turning to `O=C(O)Cn1cc(N2CC[C@@]3(CCCN(c4cccnc4)C3)C2=O)ccc1=O` [I-14], the IC50 in experiment [1] and in experiment [2] was above 5000 nM in each case.

Turning to `O=C(O)Cn1cc(N2CC[C@]3(CCCN(c4cccnc4)C3)C2=O)ccc1=O` [I-15], the IC50 is 50 to 500 nM in experiment [1] and above 5000 nM in experiment [2].

In the case of `O=C(O)Cn1cc(N2C[C@]3(CCCN(c4cccnc4)C3)CC2=O)ccc1=O` [I-16], the IC50 in experiment [1] and in experiment [2] was above 5000 nM throughout.

As for `O=C(O)Cn1cc(N2C[C@@]3(CCCN(c4cccnc4)C3)CC2=O)ccc1=O` [I-17], the IC50 in experiment [1] and in experiment [2] was above 5000 nM each time.

With `CNc1cncc(N2CCC[C@H](C(=O)Nc3ccc(Cl)c(CC(=O)O)c3)C2)c1` [I-18], the results for the IC50 in experiment [1] and in experiment [2] were 50 to 500 nM and 500 to 5000 nM, respectively.

Regarding `CNc1cncc(N2CCC[C@H](C(=O)Nc3ccc(F)c(CC(=O)O)c3)C2)c1` [I-19], the IC50 in experiment [1] lay in the range of 50 to 500 nM; in experiment [2] it was 500 to 5000 nM.

On to `COc1cncc(N2CCC[C@H](C(=O)Nc3ccc(Cl)c(CC(=O)O)c3)C2)c1` [I-20], for which the values for the 50% inhibitory concentration (IC50) in experiment [1] and in experiment [2] were 50 to 500 nM and 500 to 5000 nM, respectively.

As to `CCc1cncc(N2CCC[C@H](C(=O)Nc3ccc(Cl)c(CC(=O)O)c3)C2)c1` [I-21], the figures for the IC50 in experiment [1] and in experiment [2] were 50 to 500 nM and 500 to 5000 nM, respectively.

For `COc1cncc(-c2cccc(C(=O)Nc3ccc(O)c(CC(=O)O)c3)c2)c1` [I-22], the half-inhibitory concentration (IC50) in experiment [1] and in experiment [2] was above 5000 nM throughout.

Regarding `CCc1cncc(N2CCC[C@H](C(=O)Nc3ccc(F)c(CC(=O)O)c3)C2)c1` [I-23], the IC50 in experiment [1] was below 50 nM; in experiment [2], 50 to 500 nM.

Turning to `COc1cncc(N2CCC[C@H](C(=O)Nc3ccc(F)c(CC(=O)O)c3)C2)c1` [I-24], the IC50 in experiment [1] and in experiment [2] was 50 to 500 nM each time.

For the compound `N#Cc1cc(=O)n(CC(=O)O)cc1NC(=O)c1cccc(-c2cccnc2)c1` [I-25], the IC50 in experiment [1] is 50 to 500 nM; in experiment [2], 500 to 5000 nM.

Regarding `N#Cc1cc(=O)n(CC(=O)O)cc1NC(=O)[C@H]1CCCN(c2cccnc2)C1` [I-26], the IC50 in experiment [1] was in the range of 50 to 500 nM; in experiment [2], 500 to 5000 nM.

As to `O=C(O)Cc1cc(NC(=O)[C@@H]2CCCN(c3cccnc3)C2)ccc1F` [I-27], the IC50 in experiment [1] and in experiment [2] was above 5000 nM throughout.

For `O=C(O)Cn1cc(NC(=O)[C@H]2CCCN(c3cccnc3)CC2)ccc1=O` [I-28], the figures for the 50% inhibitory concentration (IC50) in experiment [1] and in experiment [2] were 500 to 5000 nM and above 5000 nM, respectively.

Take `O=C(O)Cn1cc(NC(=O)[C@@H]2CCCN(c3cccnc3)CC2)ccc1=O` [I-29]: the IC50 in experiment [1] is 500 to 5000 nM; in experiment [2] it was above 5000 nM.

With `O=C(O)Cc1cc(NC(=O)[C@@H]2CCCN(c3cccnc3)C2)ccc1Cl` [I-30], the IC50 in experiment [1] and in experiment [2] was above 5000 nM each time.

On to `Cn1cc(NC(=O)c2cccc(-c3cccnc3)c2)cc(C(=O)O)c1=O` [I-31], for which the IC50 in experiment [1] and in experiment [2] was above 5000 nM in each case.

In the case of `O=C(O)Cn1cc(NC(=O)[C@H]2CN(c3cccnc3)Cc3ccccc32)ccc1=O` [I-32], the results for the half-inhibitory concentration (IC50) in experiment [1] and in experiment [2] were 500 to 5000 nM and above 5000 nM, respectively.

For `O=C(O)Cc1cc(NC(=O)[C@H]2CCCN(c3cccnc3)C2)ccc1F` [I-33], the IC50 in experiment [1] was 50 to 500 nM; in experiment [2], 500 to 5000 nM.

Consider `O=C(O)Cn1cc(NC(=O)[C@@H]2CN(c3cccnc3)Cc3ccccc32)ccc1=O` [I-34], for which the IC50 in experiment [1] and in experiment [2] was above 5000 nM throughout.

For the compound `O=C(O)Cc1cc(NC(=O)[C@H]2CCCN(c3cccnc3)C2)ccc1Cl` [I-35], the IC50 fell in the range of 50 to 500 nM in experiment [1] and 500 to 5000 nM in experiment [2].

Turning to `CN(CC(C)(C)C(=O)Nc1ccc(=O)n(CC(=O)O)c1)c1cccnc1` [I-36], the half-maximal inhibitory concentration (IC50) in experiment [1] and in experiment [2] was above 5000 nM in each case.

As to `O=C(Nc1ccnc(C(=O)O)c1)c1cccc(-c2cccnc2)c1` [I-37], the IC50 in experiment [1] and in experiment [2] was above 5000 nM in each case.

Take `O=C(O)Cn1cc(N2CCC3(CCN(c4cccnc4)CC3)C2=O)ccc1=O` [I-38]: the IC50 in experiment [1] and in experiment [2] was above 5000 nM throughout.

Take `CCc1cncc(N2CCC[C@H](C(=O)Nc3ccc(=O)n(CC(=O)O)c3)C2)c1` [I-39]: the results for the IC50 in experiment [1] and in experiment [2] were below 50 nM and 50 to 500 nM, respectively.

`CNc1cncc(N2CCC[C@H](C(=O)Nc3ccc(=O)n(CC(=O)O)c3)C2)c1` [I-40]: the IC50 in experiment [1] is below 50 nM; in experiment [2], 50 to 500 nM.

Take `O=C(O)Cn1cc(NC(=O)[C@H]2CCCN(c3cncc4ccccc34)C2)ccc1=O` [I-41]: the IC50 in experiment [1] and in experiment [2] was below 50 nM each time.

As to `O=C(O)Cn1cc(NC(=O)c2cccc(-c3cccnc3)c2Cl)ccc1=O` [I-42], the half-inhibitory concentration (IC50) in experiment [1] is 500 to 5000 nM; in experiment [2], above 5000 nM.

As to `CN(CC1(C(=O)Nc2ccc(=O)n(CC(=O)O)c2)CC1)c1cccnc1` [I-43], the IC50 in experiment [1] and in experiment [2] was above 5000 nM in each case.

Regarding `COc1cncc(N2CCC[C@H](C(=O)Nc3ccc(=O)n(CC(=O)O)c3)C2)c1` [I-45], the 50% inhibitory concentration (IC50) in experiment [1] is below 50 nM; in experiment [2], 50 to 500 nM.

With `CC(C)c1cc(=O)n(CC(=O)O)cc1NC(=O)[C@H]1CCCN(c2cccnc2)C1` [I-46], the IC50 in experiment [1] is 500 to 5000 nM; in experiment [2] it was above 5000 nM.

On to `COc1cncc(-c2cccc(C(=O)Nc3ccc(=O)n(CC(=O)O)c3)c2)c1` [I-47], for which the values for the IC50 in experiment [1] and in experiment [2] were below 50 nM and 500 to 5000 nM, respectively.

For the compound `O=C(O)Cn1cc(NC(=O)[C@H]2CCN(c3cccnc3)C2)ccc1=O` [I-48], the IC50 is 500 to 5000 nM in experiment [1] and above 5000 nM in experiment [2].

On to `O=C(O)Cn1cc(NC(=O)[C@@H]2CCN(c3cccnc3)C2)ccc1=O` [I-49], for which the half-maximal inhibitory concentration (IC50) in experiment [1] and in experiment [2] was above 5000 nM throughout.

With `CCc1cc(=O)n(CC(=O)O)cc1NC(=O)[C@H]1CCCN(c2cccnc2)C1` [I-50, 2-[4-ethyl-2-oxo-5-[(3S)-1-(3-pyridyl)piperidine-3-carbonyl|amino]-1-pyridyl]acetic acid], the IC50 in experiment [1] was 50 to 500 nM; in experiment [2], 500 to 5000 nM.

Regarding `O=C(Nc1ccc(=O)n([C@@H](F)C(=O)O)c1)c1cccc(-c2cccnc2)c1` [I-51], the IC50 is 500 to 5000 nM in experiment [1] and above 5000 nM in experiment [2].

As to `O=C(Nc1ccc(=O)n([C@H](F)C(=O)O)c1)c1cccc(-c2cccnc2)c1` [I-52], the IC50 in experiment [1] and in experiment [2] was above 5000 nM each time.

For the compound `CC1CC(C(=O)Nc2ccc(=O)n(CC(=O)O)c2)CN(c2cccnc2)C1` (stereo not shown) [I-53], the values for the IC50 in experiment [1] and in experiment [2] were 50 to 500 nM and 500 to 5000 nM, respectively.

On to `CCc1cc(=O)n(CC(=O)O)cc1NC(=O)c1cccc(-c2cccnc2)c1` [I-54], for which the 50% inhibitory concentration (IC50) lay within 50 to 500 nM in experiment [1] and 500 to 5000 nM in experiment [2].

Consider `O=C(O)Cc1cc(NC(=O)c2cccc(-c3cccnc3)c2)ccc1F` [I-55], for which the results for the IC50 in experiment [1] and in experiment [2] were 500 to 5000 nM and above 5000 nM, respectively.

As for `O=C(O)Cn1cc(Nc2ncc(-c3cccnc3)c3ccccc23)ccc1=O` [I-56], the 50% inhibitory concentration (IC50) in experiment [1] is 500 to 5000 nM; in experiment [2], above 5000 nM.

As for `O=C(O)Cn1cc(NC(=O)[C@H]2CCCN(c3cccnc3)C2)c(C2CC2)cc1=O` [I-57], the concentration for half-maximal inhibition (IC50) in experiment [1] and in experiment [2] was above 5000 nM throughout.

`O=C(O)Cn1cc(NC(=O)[C@@H]2CCCN(c3cccnc3)C2)c(C2CC2)cc1=O` [I-58]: the IC50 in experiment [1] is 500 to 5000 nM; in experiment [2], above 5000 nM.

Consider `CC(C)c1cc(=O)n(CC(=O)O)cc1NC(=O)c1cccc(-c2cccnc2)c1` [I-59], for which the values for the IC50 in experiment [1] and in experiment [2] were 50 to 500 nM and 500 to 5000 nM, respectively.
